In the supplement of paper PMC11208160:

Test: recombinant barcode read abundance after kanamycin selection (control-corrected) (log10(CPM+1)); higher = more efficient recombination; sequences stand for … in AGTGCAGAGAAAATCGGCCAGTTTTCTCTGCCTGCAGTCCGCATGCCGT…AGATTTATGCAGCGGACTGCCTTTCTCCCAAAGTGATAAACCGGACAGTATCATGGACCGGTTTTCCCGGTAATCCGTATTTGCAAGGTTGGTTTCACT; site = the 11-nt target
How it was run: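 A vector carrying a T7-inducible recombinase and the last 73 bp of the bridge RNA received, by Gibson cloning, oligos encoding a promoter, target, barcode and the first 104 bridge RNA bases under J23119. The pooled constructs entered E. coli together with a donor plasmid by electroporation. Selection used chloramphenicol/ampicillin/kanamycin with 0.1 mM IPTG, with chloramphenicol/ampicillin LB agar as the control, each in two replicates. Recombination efficiency is the averaged, control-corrected counts-per-million of barcodes at recombinant junctions, reported as log10(CPM+1).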
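Further: IS621 recombinase and bridge RNA in Escherichia coli cells.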

Sequence	recombinant barcode read abundance (log10)
GATCGAACTTGGGTTCTAACCTGTTGCCT (site AATCGAACTAG)	0.15
GAGTGGCCTTGGGTTCTAACCTGTTGCCT (site GAGTGGCCTAA)	0.316
GCCATAACTTGGGTTCTAACCTGTTGCCT (site GCCATGACTAG)	0.256
ATCCGCTCTTGGGTTCTAACCTGTTGCCT (site ATCCGCTCTAG)	2.06
TGTTGTTCTTGGGTTCTAACCTGTTGCCT (site TGTTGTTCTAG)	0.0851
GAGGAGTCTTGGGTTCTAACCTGTTGCCG (site AGAACACCTAA)	0.0129
GCCGGGGCTTGGGTTCTAACCTGTTGCCG (site GCCCGGGCTCG)	0.452
GAGATCCCTTGGGTTCTAACCTGTTGCTA (site GAGATCCCTCA)	0.427
TGCGTTCCTTGGGTTCTAACCTGTTGCGT (site TGCGTCACTAC)	0.0759
CACTGGTCTTGGGTTCTAACCTGTTGCCT (site CACTGATCTAG)	0.532
TCGTCCTCTTGGGTTCTAACCTGTTGCCT (site TCGTCCTCTAG)	0.323
GCCCGATCTTGGGTTCTAACCTGTTGCCT (site GCCCCATCTAG)	0.179
AGGAGCCCTTGGGTTCTAACCTGTTGCCA (site AGGAGCCCTTG)	0.841
CGTTAACCTTGGGTTCTAACCTGTTGCGT (site CGTGAACCTAC)	0.177
AAGATATCTTGGGTTCTAACCTGTTGCCT (site ACGATATCTAG)	0.119
CTTTGAACTTGGGTTCTAACCTGTTGCTA (site TCGATCCCTAC)	0.102
GTATACCCTTGGGTTCTAACCTGTTGCCA (site GTATACCCTTG)	1.27
TAGGTACCTTGGGTTCTAACCTGTTGCAT (site TAGGTTCCTAT)	0.0968
TAGAACACTTGGGTTCTAACCTGTTGCTG (site TAGAACACTTA)	0.0894
CCTAGCACTTGGGTTCTAACCTGTTGCGA (site CCTTGCACTTC)	0.0494
TAGACTACTTGGGTTCTAACCTGTTGCTC (site TAGACTACTTA)	0.0392
TAGTCCTCTTGGGTTCTAACCTGTTGCTT (site TAGTCCTCTGA)	0.13

Sequence	recombinant barcode read abundance (log10)
TACACGACTTGGGTTCTAACCTGTTGCGG (site TACACGACTCC)	1.51
AGTTCCACTTGGGTTCTAACCTGTTGCCT (site AGTTACACTAG)	0.0694
CTGTTGTCTTGGGTTCTAACCTGTTGCCA (site CTGCTGTCTTG)	0.00714
CGATTTCCTTGGGTTCTAACCTGTTGCAT (site CGATTTCCTAG)	0
GTCCGTCCTTGGGTTCTAACCTGTTGCCT (site GTCCGTCCTAG)	0.833
TCTAGATCTTGGGTTCTAACCTGTTGCCT (site TCTAGATCTAG)	0.0616
GCGACTCCTTGGGTTCTAACCTGTTGCAT (site GCGACTCCTAT)	0.857
CCTGTATCTTGGGTTCTAACCTGTTGCCT (site TCTGTATCTAG)	0.039
TGGTATACTTGGGTTCTAACCTGTTGCCT (site TGGTATACTAG)	0.241
TTCCGAGCTTGGGTTCTAACCTGTTGCAG (site TTCCGAGCTCT)	0.873
TCTAGATCTTGGGTTCTAACCTGTTGCCT (site TCTAGAACTAG)	0.0897
AGTATGACTTGGGTTCTAACCTGTTGCCT (site TGTATGACTAG)	0.0581
CGGCGTGCTTGGGTTCTAACCTGTTGCCT (site CCGCGTGCTAG)	0.34
ACATTTACTTGGGTTCTAACCTGTTGCCT (site ACATTTACTAG)	0.0855
CTGAGCCCTTGGGTTCTAACCTGTTGCCG (site CTAAGCCCTCC)	0.239
GAGGAGTCTTGGGTTCTAACCTGTTGCCG (site GAGGAGTCTCG)	1.3
AAATTTCCTTGGGTTCTAACCTGTTGCCT (site ATATTTCCTAG)	0.123
CAGAGCCCTTGGGTTCTAACCTGTTGCTG (site CTGAGCCCTCA)	0.0157
TTCGTAGCTTGGGTTCTAACCTGTTGCGT (site TTCGTAGCTAG)	0.285
CTACGACCTTGGGTTCTAACCTGTTGCGG (site CTACGACCTCC)	2.9
GAGTAGTCTTGGGTTCTAACCTGTTGCCT (site GAGCAGTCTAG)	1.27
GGAGTGACTTGGGTTCTAACCTGTTGCTA (site GGAGTGACTAA)	0.183

Sequence	recombinant barcode read abundance (log10)
ACGGGTTCTTGGGTTCTAACCTGTTGCCT (site ACGGGTTCTAG)	2.46
GCCGGGCCTTGGGTTCTAACCTGTTGCCT (site GCCGGGCCTAG)	0.265
GCGTCACCTTGGGTTCTAACCTGTTGCCT (site ACGTCACCTAG)	0.0445
AGGAGCCCTTGGGTTCTAACCTGTTGCTA (site AGGAGCCCTCA)	0.165
GACACGCCTTGGGTTCTAACCTGTTGCAT (site GACACGCCTAT)	0.189
TACACGACTTGGGTTCTAACCTGTTGCGG (site TACACTACTCG)	0
CAAATAACTTGGGTTCTAACCTGTTGCCT (site CAAATAACTAG)	0.461
CGTCTACCTTGGGTTCTAACCTGTTGCTT (site CGTCTACCTAA)	0.242
AGTCTGCCTTGGGTTCTAACCTGTTGCTG (site GCCGATACTTG)	0.0929
TAGCCTACTTGGGTTCTAACCTGTTGCGC (site TAGCCTACTAC)	0.0597
CTAAATACTTGGGTTCTAACCTGTTGCTT (site CTATATACTAA)	0.107
GAGCTGCCTTGGGTTCTAACCTGTTGCCA (site GAGCTGCCTTG)	1.66
GAAACTGCTTGGGTTCTAACCTGTTGCCT (site GATACTGCTAG)	0.0634
TAGTCTCCTTGGGTTCTAACCTGTTGCGT (site TAGTCTCCTAC)	0.314
TAGAACACTTGGGTTCTAACCTGTTGCCT (site TAGAACACTAG)	0.992
GCAAGGCCTTGGGTTCTAACCTGTTGCCT (site GCAAGGCCTAG)	0.418
CTAGACTCTTGGGTTCTAACCTGTTGCAG (site CTAGACTCTGT)	1.16
TTCGTAGCTTGGGTTCTAACCTGTTGCGT (site TTCGTAGCTAC)	1.29
GTGCACCCTTGGGTTCTAACCTGTTGCTT (site GGGCATCCTAA)	0.115
ACTCGACCTTGGGTTCTAACCTGTTGCCT (site ACTAGACCTAG)	0.197
CGCCTCCCTTGGGTTCTAACCTGTTGCCT (site CGCCTCACTAG)	0.179
TGTAATCCTTGGGTTCTAACCTGTTGCCT (site TGTAATCCTAG)	0.025

Sequence	recombinant barcode read abundance (log10)
CCTTTACCTTGGGTTCTAACCTGTTGCCT (site ACTTTACCTAG)	0.136
ACATGTCCTTGGGTTCTAACCTGTTGCAT (site ACATGTCCTAC)	1.24
GATACAGCTTGGGTTCTAACCTGTTGCCT (site GAAACAGCTAG)	0.0665
AGTCGACCTTGGGTTCTAACCTGTTGCCT (site TGTCGACCTAG)	0.143
ATGGATACTTGGGTTCTAACCTGTTGCGT (site ATGGATACTAC)	2.51
TTACGAGCTTGGGTTCTAACCTGTTGCGG (site TTACGCGCTCC)	0.176
GTGTGTACTTGGGTTCTAACCTGTTGCCT (site GTGTGTTCTAG)	0.0215
TCGAAGTCTTGGGTTCTAACCTGTTGCTA (site TCGAAGTCTTA)	0.272
TCACCTTCTTGGGTTCTAACCTGTTGCCT (site TCACCTTCTAG)	0.274
TGAGGATCTTGGGTTCTAACCTGTTGCCT (site TGAGGATCTAG)	0.99
TACTAAGCTTGGGTTCTAACCTGTTGCTT (site TACTAAGCTAT)	0.321
CTAAGTACTTGGGTTCTAACCTGTTGCAG (site CTAAGTACTCT)	1.56
GAGGGTACTTGGGTTCTAACCTGTTGCCT (site GAGCATACTAG)	0.295
GGGGTTCCTTGGGTTCTAACCTGTTGCCT (site GGGGTTCCTAG)	2.3
GTGTGTGCTTGGGTTCTAACCTGTTGCCT (site GTGTGTGCTAG)	1.44
CGCCCTACTTGGGTTCTAACCTGTTGCCT (site CGCCCTACTAG)	0.239
TGTGTCTCTTGGGTTCTAACCTGTTGCGT (site TGTGTCTCTAC)	2.63
AGTCGACCTTGGGTTCTAACCTGTTGCCT (site GGTCGACCTAG)	0.112
ATGATTCCTTGGGTTCTAACCTGTTGCCT (site ACGATTCCTAG)	0.0545
TACGCACCTTGGGTTCTAACCTGTTGCGA (site GTAATTACTAG)	0.297
